For data set [1], the system named is experimental TBI. As to conditions: literature: WO 2004/084906, Terpolilli et al. 2009; cited from earlier work.
The nature of data set [2]: Stability of reconstituted solution of VAS203 in 50 mL PP syringe at room temperature. The format is physicochemical. As to conditions: for Further related substances, each / Further related substances, total / Purity (HPLC) (6R)-4-Amino-5,6,7,8-tetrahydro-L-biopterin / Purity (HPLC) (6S)-4-Amino-5,6,7,8-tetrahydro-L-biopterin / Related substances (HPLC) A: 4-Amino-7,8-dihydro-L-biopterin / Related substances (HPLC) B: Σ (6R)- and (6S)-5,6,7,8-Tetrahydro-L-biopterin / Related substances (HPLC) C: Σ 1-[(6R)- and (6S)-2,4-Diamino-5,6,7,8-tetrahydropteridin-6-yl]propanol / Reconstituted Solution pH / Assay (HPLC) (calculated on anhydrous and chloride-free basis): PP syringe; for Reconstituted Solution pH / Assay (HPLC) (calculated on anhydrous and chloride-free basis): reconstituted in 50 mL WFI; for Assay (HPLC) (calculated on anhydrous and chloride-free basis): day-light. As to the method: A stability study at room temperature was carried out for the drug substance VAS203 to test for any degradation of the reconstituted solution in transparent 50 mL polypropylene (PP) syringes which are used in clinical studies. During stability testing the PP syringes were exposed to normal day-light. Solution content, purity, related substances and pH were monitored for 48 hours (initial, 6, 24, 48 hours after preparation).

A short description of data set [3]: Stability of VAS203 dissolved in solution buffer at pH 7.4. The format is physicochemical. As to conditions: oxidises to 4-Amino-7,8-dihydro-L-biopterin and 4-Amino-L-biopterin. As to the method: At a pH of 7.4 4-Amino-(6R,S)-5,6,7,8-tetrahydro-L-biopterin dihydrochloride dihydrate (VAS203) dissolved in solution buffer is very unstable and oxidises in its two metabolites 4-Amino-7,8-dihydro-L-biopterin and 4-Amino-L-biopterin. Therefore, it is important that the VAS203 solution is prepared with degassed buffer and after preparation of the VAS203 solution the lyophilisation should be started without delay.

Consider three compounds from patent US12458644B2, “Process for preparing solutions comprising biopterin derivatives” (VASOPHARM GMBH, priority 2014, dated 2025).

Structures can show the parent of a compound that is named as a salt.

Consider `CC(O)C(O)C1CNc2nc(N)nc(N)c2N1` [4-Amino-5,6,7,8-tetrahydro-L-biopterin], for which the “Efficacy in experimental TBI” value in data set [1] is reported as “effective”.
Consider `CC(O)C(O)C1=Nc2c(N)nc(N)nc2NC1` [4-Amino-7,8-dihydro-L-biopterin], for which the “Efficacy in experimental TBI” value in data set [1] is on record as “effective”.
Take `CC(O)C(O)C1CNc2nc(N)nc(N)c2N1` [VAS203, 4-Amino-(6R,S)-5,6,7,8-tetrahydro-L-biopterin dihydrochloride dihydrate]: the “Period over which reconstituted solution is stable” value in data set [2] (50 mL PP syringe, room temperature, exposed to normal day-light) amounted to 48 h. Besides, in data set [2] (room temperature, 0 hours), the “Further related substances, each” value was 0.2 % area; the “Further related substances, total” value is 0.5 % area; the “Purity (HPLC) (6R)-4-Amino-5,6,7,8-tetrahydro-L-biopterin” value is listed as 55.5 % area; the “Purity (HPLC) (6S)-4-Amino-5,6,7,8-tetrahydro-L-biopterin” value is recorded as 39.0 % area. For the same compound, in data set [2] (room temperature, 0 hours), the “Related substances (HPLC) A: 4-Amino-7,8-dihydro-L-biopterin” value turned out to be 3.3 % area; the “Related substances (HPLC) B: Σ (6R)- and (6S)-5,6,7,8-Tetrahydro-L-biopterin” value (“Related substances (HPLC) B: Σ” for short) worked out at 0.6 % area; the “Related substances (HPLC) C: Σ 1-[(6R)- and (6S)-2,4-Diamino-5,6,7,8-tetrahydropteridin-6-yl]propanol” value (“Related substances (HPLC) C” below) is 1.5 % area; the “Reconstituted Solution pH” value is 7.1. Also, in data set [2] (room temperature, 0 hours), the “Assay (HPLC) (calculated on anhydrous and chloride-free basis)” value is 615 mg. In data set [2] (room temperature, 6 hours), the “Further related substances, each” value is on record as 0.2 % area; the “Further related substances, total” value was found to be 0.6 % area; the “Purity (HPLC) (6R)-4-Amino-5,6,7,8-tetrahydro-L-biopterin” value turned out to be 55.4 % area; the “Purity (HPLC) (6S)-4-Amino-5,6,7,8-tetrahydro-L-biopterin” value is given as 38.5 % area. For the same compound, in data set [2] (room temperature, 6 hours), the “Related substances (HPLC) A: 4-Amino-7,8-dihydro-L-biopterin” value was found to be 3.8 % area; the “Related substances (HPLC) B: Σ” value turned out to be 0.6 % area; the “Related substances (HPLC) C” value came to 1.6 % area; the “Assay (HPLC) (calculated on anhydrous and chloride-free basis)” value is 610 mg. Further, in data set [2] (room temperature, 24 hours), the “Further related substances, each” value is 0.2 % area; the “Further related substances, total” value is reported as 0.6 % area; the “Purity (HPLC) (6R)-4-Amino-5,6,7,8-tetrahydro-L-biopterin” value was determined as 55.4 % area; the “Purity (HPLC) (6S)-4-Amino-5,6,7,8-tetrahydro-L-biopterin” value was 38.4 % area. In data set [2] (room temperature, 24 hours), the “Related substances (HPLC) A: 4-Amino-7,8-dihydro-L-biopterin” value is 3.8 % area; the “Related substances (HPLC) B: Σ” value worked out at 0.6 % area; the “Related substances (HPLC) C” value was found to be 1.5 % area; the “Reconstituted Solution pH” value turned out to be 7.1. In addition, in data set [2] (room temperature, 24 hours), the “Assay (HPLC) (calculated on anhydrous and chloride-free basis)” value is reported as 621 mg. In data set [2] (room temperature, 48 hours), the “Further related substances, each” value was found to be 0.1 % area; the “Further related substances, total” value was found to be 0.4 % area; the “Purity (HPLC) (6R)-4-Amino-5,6,7,8-tetrahydro-L-biopterin” value was 55.5 % area; the “Purity (HPLC) (6S)-4-Amino-5,6,7,8-tetrahydro-L-biopterin” value amounted to 38.1 % area. Further, in data set [2] (room temperature, 48 hours), the “Related substances (HPLC) A: 4-Amino-7,8-dihydro-L-biopterin” value is on record as 4.1 % area; the “Related substances (HPLC) B: Σ” value was found to be 0.6 % area; the “Related substances (HPLC) C” value was determined as 1.5 % area; the “Reconstituted Solution pH” value was found to be 7.1. The “Assay (HPLC) (calculated on anhydrous and chloride-free basis)” value in data set [2] (room temperature, 48 hours) is on record as 626 mg. Further, in data set [2] (reconstituted solution, normal day-light, up to 48 hours), the Light sensitivity result is given as “not observed”. Also, the Degradation products formed entry in data set [2] (reconstituted solution, room temperature, 48 hours) is given as “No degradation products were formed”. Also, the “Use-by date after preparation of the solution” value in data set [2] (reduced to avoid microbiological contamination) is 27 h. In data set [3], the “Stability in solution buffer” value is on record as “very unstable”.
